Test results as given in ChEMBL document CHEMBL5537205, “Discovery of D25, a Potent and Selective MNK Inhibitor for Sepsis-Associated Acute Spleen Injury” (J Med Chem, 2024).
Active and inactive are the calls of the source. No cut-off for these calls is given here.

Legend:
[1] = Oral bioavailability in Sprague-Dawley rat at 20 mg/kg measured after 48 hrs; assay type: ADME, organism-based; details: in vivo
RAW264.7 [2] = test: Antiinflammatory activity against LPS-induced mouse RAW264.7 cells assessed as decrease in COX-2 expression at 10 to 20 uM by Western blot analysis; assay type: functional, cell-based; details: dose 10-20 µM
Mus musculus [3] = test: Antiinflammatory activity in LPS-induced BALB/c sepsis mouse model assessed as decrease in inflammatory cells in spleen at 10 to 20 mg/kg, po preadministered with compound for 14 days followed by LPS stimulation and measured after 6 hrs by H&E staining based analysis; assay type: functional, organism-based; details: dose 10-20 mg/kg, time 342.0 hrs
Mus musculus [4] = test: Antiinflammatory activity in LPS-induced BALB/c sepsis mouse model assessed as decrease in serum IL-1beta level at 20 mg/kg, po preadministered with compound for 14 days followed by LPS stimulation and measured after 6 hrs by ELISA; assay type: functional, organism-based; details: time 342.0 hrs
Mus musculus [5] = test: Antiinflammatory activity in LPS-induced BALB/c sepsis mouse model assessed as decrease in serum creatinine level at 10 to 20 mg/kg, po preadministered with compound for 14 days followed by LPS stimulation and measured after 6 hrs; assay type: functional, organism-based; details: dose 10-20 mg/kg, time 342.0 hrs
MV4-11 = test: Antiproliferative activity against human MV4-11 cells assessed as inhibition of cell proliferation incubated for 48 hrs by CCK8 assay; assay type: functional, cell-based; details: MV4-11, 48 h
RAW264.7 [6] = test: Antiinflammatory activity against LPS-induced mouse RAW264.7 cells assessed as inhibition of phosphorylated eIF4E expression preincubated for 1 hrs followed by LPS stimulation and measured after 1 hrs by DAPI staining based immunofluorescence analysis; assay type: functional, cell-based; details: dose 5-20 µM, time 2.0 hrs
[7] = Toxicity in BALB/c mouse assessed as change in body weight at 10 to 20 mg/kg, po administered for 14 days; assay type: organism-based; details: in vivo, 336 h, dose 10-20 mg/kg, time 14 day
[8] = Cmax in Sprague-Dawley rat at 5 mg/kg, iv measured after 48 hrs; assay type: ADME, organism-based; details: in vivo
[9] = biological target: T1, MAP kinase-interacting serine/threonine-protein kinase 2 (Homo sapiens, UniProt Q9HBH9); test: Inhibition of MNK2 (unknown origin) incubated for 60 mins in presence of ATP by HTRF assay
Target sequence in this assay (Q9HBH9 whole entry): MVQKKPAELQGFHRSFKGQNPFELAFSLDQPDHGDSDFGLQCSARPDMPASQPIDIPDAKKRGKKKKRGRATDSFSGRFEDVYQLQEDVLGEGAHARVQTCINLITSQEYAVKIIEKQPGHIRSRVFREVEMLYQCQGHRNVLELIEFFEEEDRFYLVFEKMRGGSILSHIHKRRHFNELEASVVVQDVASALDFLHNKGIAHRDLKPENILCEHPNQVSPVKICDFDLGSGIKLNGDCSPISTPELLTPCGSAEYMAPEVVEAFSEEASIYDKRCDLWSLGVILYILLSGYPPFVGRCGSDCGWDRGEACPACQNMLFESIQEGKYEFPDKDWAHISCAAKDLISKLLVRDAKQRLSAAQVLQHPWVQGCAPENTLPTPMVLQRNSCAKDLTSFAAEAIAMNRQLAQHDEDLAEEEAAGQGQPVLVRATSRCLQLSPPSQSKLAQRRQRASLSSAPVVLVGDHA

Mus musculus [10] = test: Antiinflammatory activity in LPS-induced BALB/c sepsis mouse model assessed as decrease in serum AST level at 10 to 20 mg/kg, po preadministered with compound for 14 days followed by LPS stimulation and measured after 6 hrs; assay type: functional, organism-based; details: dose 10-20 mg/kg, time 342.0 hrs
Mus musculus [11] = test: Antiinflammatory activity in LPS-induced BALB/c sepsis mouse model assessed as increase in SOD level in serum at 20 mg/kg, po preadministered with compound for 14 days followed by LPS stimulation and measured after 6 hrs; assay type: functional, organism-based; details: time 342.0 hrs
[12] = biological target: T2, MAP kinase-interacting serine/threonine-protein kinase 1 (Homo sapiens, UniProt Q9BUB5); test: Inhibition of MNK1 (unknown origin) incubated for 60 mins in presence of ATP by HTRF assay
Target sequence in this assay (Q9BUB5 whole entry): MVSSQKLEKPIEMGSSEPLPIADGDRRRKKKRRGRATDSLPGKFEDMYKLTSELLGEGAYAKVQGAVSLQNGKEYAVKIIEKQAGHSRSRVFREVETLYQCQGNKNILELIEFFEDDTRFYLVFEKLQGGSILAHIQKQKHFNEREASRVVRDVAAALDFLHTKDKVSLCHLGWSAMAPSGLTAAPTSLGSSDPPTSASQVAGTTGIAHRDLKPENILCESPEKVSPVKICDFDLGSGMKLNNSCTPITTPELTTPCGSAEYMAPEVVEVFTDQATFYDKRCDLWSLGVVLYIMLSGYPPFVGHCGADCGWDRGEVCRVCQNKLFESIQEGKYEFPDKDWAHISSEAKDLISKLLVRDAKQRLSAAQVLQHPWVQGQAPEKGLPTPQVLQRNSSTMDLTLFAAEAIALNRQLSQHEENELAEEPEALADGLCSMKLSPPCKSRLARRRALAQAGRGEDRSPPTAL

Mus musculus [13] = test: Antiinflammatory activity in LPS-induced BALB/c sepsis mouse model assessed as decrease in phosphorylated eIF4E level in spleen at 10 to 20 mg/kg, po preadministered with compound for 14 days followed by LPS stimulation and measured after 6 hrs by Western blot analysis; assay type: functional, organism-based; details: dose 10-20 mg/kg, time 342.0 hrs
Mus musculus [14] = test: Antiinflammatory activity in LPS-induced BALB/c sepsis mouse model assessed as decrease in IL-6 level in spleen at 10 to 20 mg/kg, po preadministered with compound for 14 days followed by LPS stimulation and measured after 6 hrs by Western blot analysis; assay type: functional, organism-based; details: dose 10-20 mg/kg, time 342.0 hrs
[15] = Cmax in Sprague-Dawley rat at 20 mg/kg, po measured after 48 hrs; assay type: ADME, organism-based; details: in vivo
Mus musculus [16] = test: Antiinflammatory activity in LPS-induced BALB/c sepsis mouse model assessed as decrease in infiltration of macrophages in spleen at 10 to 20 mg/kg, po preadministered with compound for 14 days followed by LPS stimulation and measured after 6 hrs by immunohistochemistry analysis; assay type: functional, organism-based; details: dose 10-20 mg/kg, time 342.0 hrs
RAW264.7 [17] = test: Antiinflammatory activity against LPS-induced mouse RAW264.7 cells assessed as decrease in iNOS expression at 10 to 20 uM by Western blot analysis; assay type: functional, cell-based; details: dose 10-20 µM
RAW264.7 [18] = test: Antiinflammatory activity in LPS-induced mouse RAW264.7 cells assessed as increase in Arg1 protein expression by Western blot analysis; assay type: functional, cell-based; details: dose <= 20.0 µM
RAW264.7 [19] = test: Antiinflammatory activity against LPS-induced mouse RAW264.7 cells assessed as decrease in phosphorylated eIF4E expression at 10 to 20 uM by Western blot analysis; assay type: functional, cell-based; details: dose 10-20 µM
Mus musculus [20] = test: Antiinflammatory activity in LPS-induced BALB/c sepsis mouse model assessed as decrease in TNF-alpha level in spleen at 10 to 20 mg/kg, po preadministered with compound for 14 days followed by LPS stimulation and measured after 6 hrs by Western blot analysis; assay type: functional, organism-based; details: dose 10-20 mg/kg, time 342.0 hrs
Mus musculus [21] = test: Antiinflammatory activity in LPS-induced BALB/c sepsis mouse model assessed as decrease in serum ALT level at 10 to 20 mg/kg, po preadministered with compound for 14 days followed by LPS stimulation and measured after 6 hrs; assay type: functional, organism-based; details: dose 10-20 mg/kg, time 342.0 hrs
Mus musculus [22] = test: Antiinflammatory activity in LPS-induced BALB/c sepsis mouse model assessed as decrease in serum TNF-alpha level at 20 mg/kg, po preadministered with compound for 14 days followed by LPS stimulation and measured after 6 hrs by ELISA; assay type: functional, organism-based; details: time 342.0 hrs
[23] = AUC (0 to t) in Sprague-Dawley rat at 20 mg/kg, po measured after 48 hrs; assay type: ADME, organism-based; details: in vivo
Mus musculus [24] = test: Antiinflammatory activity in LPS-induced BALB/c sepsis mouse model assessed as reversal of LPS-induced lung […] index at 20 mg/kg, po preadministered with compound for 14 days followed by LPS stimulation and measured after 6 hrs; assay type: functional, organism-based; details: time 342.0 hrs
[25] = biological target: T1, MAP kinase-interacting serine/threonine-protein kinase 2; test: Inhibition of MNK2 (unknown origin) at 1 uM relative to control
Target sequence in this assay (Q9HBH9 whole entry, looked up): as the sequence (Q9HBH9 whole entry) above

[26] = biological target: T2, MAP kinase-interacting serine/threonine-protein kinase 1; test: Inhibition of MNK1 (unknown origin) at 1 uM relative to control
Target sequence in this assay (Q9BUB5 whole entry, looked up): as the sequence (Q9BUB5 whole entry) above

Mus musculus [27] = test: Antiinflammatory activity in LPS-induced BALB/c sepsis mouse model assessed as decrease in MDA level in serum at 20 mg/kg, po preadministered with compound for 14 days followed by LPS stimulation and measured after 6 hrs; assay type: functional, organism-based; details: time 342.0 hrs
Mus musculus [28] = test: Antiinflammatory activity in LPS-induced BALB/c sepsis mouse model assessed as reversal of LPS-induced spleen […] index at 20 mg/kg, po preadministered with compound for 14 days followed by LPS stimulation and measured after 6 hrs; assay type: functional, organism-based; details: time 342.0 hrs
Mus musculus [29] = test: Antiinflammatory activity in LPS-induced BALB/c sepsis mouse model assessed as reversal of LPS-induced liver […] index at 20 mg/kg, po preadministered with compound for 14 days followed by LPS stimulation and measured after 6 hrs; assay type: functional, organism-based; details: time 342.0 hrs
[30] = Half-life in Sprague-Dawley rat at 5 mg/kg, iv measured after 48 hrs; assay type: ADME, organism-based; details: in vivo
Mus musculus [31] = test: Antiinflammatory activity in LPS-induced BALB/c sepsis mouse model assessed as decrease in volume of spleen nucleus at 10 to 20 mg/kg, po preadministered with compound for 14 days followed by LPS stimulation and measured after 6 hrs by H&E staining based analysis; assay type: functional, organism-based; details: dose 10-20 mg/kg, time 342.0 hrs
RAW264.7 [32] = test: Antiinflammatory activity against LPS-induced mouse RAW264.7 cells assessed as decrease in IL-6 expression at 10 to 20 uM by Western blot analysis; assay type: functional, cell-based; details: dose 10-20 µM

c1cc(-c2cc(C3CCNCC3)n[nH]2)c2cc[nH]c2n1
F [1]: 1.16% | Activity (RAW264.7 [2]): Active | Activity (Mus musculus [3]): Active | Activity (Mus musculus [4]): Active | Activity (Mus musculus [5]): Active | IC50 (MV4-11): 550 nM | Activity (RAW264.7 [6]): Dose-Dependent Effect | Activity [7]: Non-Toxic | Cmax [8]: 3580 ng/mL | IC50 [9]: 135 nM | Activity (Mus musculus [10]): Active | Activity (Mus musculus [11]): Active | IC50 [12]: 121 nM | Activity (Mus musculus [13]): Active | Activity (Mus musculus [14]): Active | Cmax [15]: 26.2 ng/mL | Activity (Mus musculus [16]): Active | Activity (RAW264.7 [17]): Active | Activity (RAW264.7 [18]): Dose-Dependent Effect | Activity (RAW264.7 [19]): Active | Activity (Mus musculus [20]): Active | Activity (Mus musculus [21]): Active | Activity (Mus musculus [22]): Active | AUCt [23]: 755.3 ng·h/mL | Activity (Mus musculus [24]): Active | inhibition [25]: 85.8% | inhibition [26]: 88.3% | Activity (Mus musculus [27]): Active | Activity (Mus musculus [28]): Active | Activity (Mus musculus [29]): Active | half-life [30]: 5.52 h | Activity (Mus musculus [31]): Active | Activity (RAW264.7 [32]): Active
